The nature of data set [1]: LD50 in female rats, oral by gavage. To be noted: rat, in vivo, 10% w/v suspension in corn oil. As for the experimental part:
1. The LD50 of the compound of Example 3, both as the free base and the hydrochloride salt was determined in female rats by standard techniques the compound being administered as a 10% w/v suspension in corn oil orally by gavage.

A short description of data set [2]: LD50 in mice, oral. To be noted: mouse, in vivo, suspension of 0.25% Celacol. As for the experimental part: 2. The LD50 of the compound of Example 3 was determined in mice by standard techniques, the compound being administered orally in a suspension of 0.25% Celacol.
Data set [3] concerns P. berghei. The data set can be described thus: percentage inhibition of P. berghei (blood parasitaemia) in mice, seven oral doses. It counts as in vivo. To be noted: Plasmodium berghei, 96 h, parasitaemia on fourth day; for inhibition in vivo at 10 mg/kg: 7 × 10 mg/kg oral; for inhibition in vivo at 100 mg/kg: 7 × 100 mg/kg oral. From the text: Groups of five mice were inoculated intraperitoneally with the normal strain of P. berghei. The mice on test received seven oral doses of drug beginning on the afternoon of the day of infection then twice a day for the following three days. Blood parasitaemias were estimated on the fourth day and compared with those of the untreated controls.
The results are given in Table 1, the results being expressed as percentage inhibition of P. berghei.

Turning to `Cl.Nc1ccccc1SCc1ncon1` [Example 3 - HCl salt, 3-(2-Aminophenylthiomethyl)-1,2,4-oxadiazole hydrochloride], the LD50 in data set [1] amounted to 63 mg/kg. Turning to `Nc1ccccc1SCc1ncon1` [Example 3, 3-(2-Aminophenylthiomethyl)-1,2,4-oxadiazole], the 50% lethal dose (LD50) is about 45 mg/kg in data set [2] and 79.4 mg/kg in data set [1]. In data set [3], `O=[N+]([O-])c1ccc(Sc2ccc(NC(=S)Nc3ccccc3SCc3ncon3)cc2)cc1` [Example 37, N-[2-(1,2,4-oxadiazol-3-yl-methylthio)phenyl]-N^1-4-(4-nitrophenylthio)phenyl thiourea] gave an inhibition in vivo at 10 mg/kg of 50% and an inhibition in vivo at 100 mg/kg of 22%.

With `O=C(Nc1ccccc1SCc1ncon1)c1ccc(Cl)cc1` [Example 25, 3-[2-(4-chlorobenzamido)phenylthiomethyl]-1,2,4-oxadiazole], in data set [3], 10 mg/kg produced 64% inhibition in vivo and testing at 100 mg/kg gave an inhibition in vivo of 99.9%. For the molecule `O=C(Nc1ccccc1SCc1ncon1)NC1CCCCC1` [Example 35], 100 mg/kg produced 39% inhibition in vivo in data set [3].

The values are drawn from patent publication US4294843A, “Anti-protozoal oxadiazole derivatives” (Burroughs Wellcome Co., priority 1978, dated 1981).
